Experimental data published in ChEMBL document CHEMBL3351762, “The fungal natural product (1S,3S)-austrocortirubin induces DNA damage in HCT116 cells via a mechanism unique from other DNA damaging agents” (Bioorg Med Chem Lett, 2015).
Active and inactive are the calls of the source. No cut-off for these calls is given here.

Columns and labels:
[1] = Cell cycle arrest in human HCT116 cells assessed as increase in accumulation at S phase at 20 uM after 24 by flow cytometry; assay type: functional, cell-based; conditions: HCT-116
[2] = Cell cycle arrest in human HCT116 cells assessed as increase in accumulation at G2/M phase at 20 uM after 24 by flow cytometry; assay type: functional, cell-based; conditions: HCT-116
[3] = Cytotoxicity against human HCT116 cells after 72 hrs by cell counting Kit-8 assay; assay type: functional, cell-based; conditions: HCT-116, 72 h
[4] = system: HCT-116; assay: Induction of apoptosis in human HCT116 cells assessed as increase in mitosis at 20 uM after 24 by flow cytometry; assay type: functional
[5] = Cell cycle arrest in human HCT116 cells assessed as decrease in accumulation at S phase at 100 to 200 uM after 24 by flow cytometry; assay type: functional, cell-based; conditions: HCT-116
[6] = Cell cycle arrest in human HCT116 cells assessed as cells at M phase at 100 to 200 nM after 24 by flow cytometry; conditions: HCT-116
[7] = system: HCT-116; assay: Induction of DNA damage in human HCT116 cells at S phase at 100 to 200 uM after 24 hrs by gamma-H2AX-staining based-flow cytometry; assay type: functional
[8] = system: HCT-116; assay: Induction of DNA damage in human HCT116 cells at G2/M phase at 100 to 200 uM after 24 hrs by gamma-H2AX-staining based-flow cytometry; assay type: functional
[9] = Cell cycle arrest in human HCT116 cells assessed as increase in accumulation at G2/M phase at 100 to 200 uM after 24 by flow cytometry; assay type: functional, cell-based; conditions: HCT-116
[10] = system: HCT-116; assay: Induction of DNA damage in human HCT116 cells at G0/G1 phase at 100 to 200 nM after 24 hrs by gamma-H2AX-staining based-flow cytometry
[11] = system: HCT-116; assay: Induction of apoptosis in human HCT116 cells assessed as early-stage apoptotic cells at 15 uM after 24 to 48 hrs by Annexin V/PI-FITC staining based flow cytometry; assay type: functional
[12] = system: HCT-116; assay: Induction of DNA damage in human HCT116 cells at S phase at 15 to 30 uM after 24 hrs by gamma-H2AX-staining based-flow cytometry; assay type: functional
[13] = Cell cycle arrest in human HCT116 cells assessed as increase in accumulation at S phase at 15 to 30 uM after 24 by flow cytometry; assay type: functional, cell-based; conditions: HCT-116
[14] = Cell cycle arrest in human HCT116 cells assessed as increase in accumulation at G2/M phase at 15 to 30 uM after 24 by flow cytometry; assay type: functional, cell-based; conditions: HCT-116
[15] = Cell cycle arrest in human HCT116 cells assessed as cells at M phase at 15 to 30 uM after 24 by flow cytometry; assay type: functional, cell-based; conditions: HCT-116
[16] = system: HCT-116; assay: Induction of DNA damage in human HCT116 cells at G2/M phase at 15 to 30 uM after 24 hrs by gamma-H2AX-staining based-flow cytometry; assay type: functional

**Q.** Which results are given for CC(=O)O[C@H]1C(=O)[C@@]2(C)[C@H]([C@H](OC(=O)c3ccccc3)[C@]3(O)C[C@H](OC(=O)[C@H](O)[C@@H](NC(=O)c4ccccc4)c4ccccc4)C(C)=C1C3(C)C)[C@]1(OC(C)=O)CO[C@@H]1C[C@@H]2O [PACLITAXEL]?
**A.** Activity [1]: Active; Activity [2]: Active; IC50 [3]: 0.0027 µM; fold change (FC) [4]: 3

**Q.** Which results are given for COc1cccc2c1C(=O)c1c(O)c3c(c(O)c1C2=O)C[C@@](O)(C(=O)CO)C[C@@H]3O[C@H]1C[C@H](N)[C@H](O)[C@H](C)O1 [DOXORUBICIN]?
**A.** Activity [5]: Active; IC50 [3]: 0.0199 µM; Activity [6]: inactive; Activity [7]: 50%; Activity [8]: 50%; Activity [9]: Active; Activity [10]: inactive

**Q.** For COC1=CC(=O)c2c(O)c3c(c(O)c2C1=O)C[C@@](C)(O)C[C@@H]3O, which IC50 [3] is on record?
**A.** 23.7 µM

**Q.** Which IC50 [3] does the source give for C[C@]1(O)Cc2c(O)c3c(c(O)c2[C@@H](O)C1)C(=O)C=C(NCCc1ccccc1)C3=O here?
**A.** 16 µM

**Q.** Which results are given for COC1=CC(=O)c2c(O)c3c(c(O)c2C1=O)C[C@](C)(O)C[C@@H]3O?
**A.** Activity [11]: 75%; Activity [12]: 90%; Activity [13]: Active; Activity [14]: Active; IC50 [3]: 3.7 µM; Activity [15]: inactive; Activity [16]: 50%

**Q.** For C[C@]1(O)Cc2c(O)c3c(c(O)c2[C@@H](O)C1)C(=O)C=C(NCCc1ccc(Cl)cc1)C3=O, which IC50 [3] is on record?
**A.** 10.1 µM

**Q.** For COc1cc(O)c2c(c1O)C(=O)c1cc(C)ccc1C2=O [AUSTROCORTIRUBIN], which IC50 [3] is on record?
**A.** > 50 µM

**Q.** With COC1=CC(=O)c2c(O)c3c(c(O)c2C1=O)C[C@](C)(O)CC3 as the molecule, how does the IC50 [3] read?
**A.** 26.8 µM
